Calls of active or inactive are those of the source.
Assays:
[1] = biological target: T1, Nuclear receptor subfamily 0 group B member 1 (Homo sapiens, UniProt P51843); experiment: Luminescence-based cell-based high throughput dose response assay for inhibitors of the orphan nuclear receptor subfamily 0, group B, member 1 (DAX1; NR0B1). [Related pubchem assays (depositor defined):AID504766, AID504790]; assay type: functional
T1 sequence (P51843 whole entry): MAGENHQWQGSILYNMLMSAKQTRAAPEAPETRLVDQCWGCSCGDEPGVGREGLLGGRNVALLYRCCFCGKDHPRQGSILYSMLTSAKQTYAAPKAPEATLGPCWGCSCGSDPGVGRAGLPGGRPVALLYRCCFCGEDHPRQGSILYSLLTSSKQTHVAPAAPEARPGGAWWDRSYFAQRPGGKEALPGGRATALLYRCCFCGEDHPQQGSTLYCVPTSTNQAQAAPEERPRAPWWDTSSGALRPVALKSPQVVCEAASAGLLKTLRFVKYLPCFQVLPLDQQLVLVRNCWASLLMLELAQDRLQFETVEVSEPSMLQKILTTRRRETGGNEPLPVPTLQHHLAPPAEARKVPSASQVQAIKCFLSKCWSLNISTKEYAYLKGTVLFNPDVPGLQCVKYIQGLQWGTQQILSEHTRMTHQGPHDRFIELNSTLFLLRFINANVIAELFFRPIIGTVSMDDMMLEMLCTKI

[2] = system: HEK293; experiment: cells; assay type: functional, cell-based; details: Homo sapiens
[3] = biological target: T2, Zinc finger protein mex-5 (Caenorhabditis elegans, UniProt Q9XUB2); experiment: potency of MEX-5 RNA-binding blockers – biochemical, C. elegans, fluorescence polarization, dose response (AID 1960)
T2 sequence (Q9XUB2 whole entry): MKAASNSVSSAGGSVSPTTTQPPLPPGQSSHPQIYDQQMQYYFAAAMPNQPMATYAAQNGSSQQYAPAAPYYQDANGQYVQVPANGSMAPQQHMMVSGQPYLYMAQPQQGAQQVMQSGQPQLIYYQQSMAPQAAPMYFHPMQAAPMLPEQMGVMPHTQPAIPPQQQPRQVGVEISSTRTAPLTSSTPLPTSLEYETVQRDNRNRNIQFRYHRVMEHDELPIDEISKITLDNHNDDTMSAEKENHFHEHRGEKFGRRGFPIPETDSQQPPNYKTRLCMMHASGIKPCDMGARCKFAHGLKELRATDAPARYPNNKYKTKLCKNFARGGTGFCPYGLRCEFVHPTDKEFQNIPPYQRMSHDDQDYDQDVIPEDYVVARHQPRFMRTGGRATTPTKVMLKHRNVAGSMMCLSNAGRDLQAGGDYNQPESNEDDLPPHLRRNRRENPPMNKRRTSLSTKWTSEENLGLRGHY

[4] = biological target: T3, RNA-binding protein pos-1 (Caenorhabditis elegans, UniProt G5EF15); experiment: disruptors of C. elegans POS-1 RNA interaction – biochemical, fluorescence polarization, dose response (AID 1964);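 also: purified POS-1 fused to maltose binding protein made in E. coli; potency of compounds blocking POS-1 binding to fluorescent RNA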
T3 sequence (G5EF15 whole entry): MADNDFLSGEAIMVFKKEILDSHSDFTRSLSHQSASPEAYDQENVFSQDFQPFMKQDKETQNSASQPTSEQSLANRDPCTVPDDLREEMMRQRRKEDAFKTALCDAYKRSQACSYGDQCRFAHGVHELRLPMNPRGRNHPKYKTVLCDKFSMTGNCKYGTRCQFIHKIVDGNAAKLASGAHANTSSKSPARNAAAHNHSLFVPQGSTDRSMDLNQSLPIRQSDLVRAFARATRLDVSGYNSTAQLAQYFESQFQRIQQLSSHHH

[5] = biological target: DNA dC->dU-editing enzyme APOBEC-3G (Homo sapiens, UniProt Q9HC16); assay type: functional;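 also: Dose-response counterscreen measuring inhibition of APOBEC3G DNA deaminase activity, run while confirming APOBEC3A inhibitors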
DNA dC->dU-editing enzyme APOBEC-3G, sequence (Q9HC16 whole entry): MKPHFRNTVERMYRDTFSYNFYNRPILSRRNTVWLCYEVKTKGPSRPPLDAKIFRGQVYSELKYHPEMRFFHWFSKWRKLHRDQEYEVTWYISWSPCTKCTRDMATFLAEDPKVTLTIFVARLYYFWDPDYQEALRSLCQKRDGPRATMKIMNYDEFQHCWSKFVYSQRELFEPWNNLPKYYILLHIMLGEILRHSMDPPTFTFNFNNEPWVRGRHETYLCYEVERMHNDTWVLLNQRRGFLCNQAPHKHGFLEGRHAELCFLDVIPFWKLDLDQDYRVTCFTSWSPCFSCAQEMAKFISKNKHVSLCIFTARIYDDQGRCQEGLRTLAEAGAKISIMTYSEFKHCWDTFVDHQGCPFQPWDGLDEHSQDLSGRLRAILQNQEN

[6] = biological target: DNA dC->dU-editing enzyme APOBEC-3A (Homo sapiens, UniProt P31941); experiment: Dose Response confirmation of small molecule APOBEC3A DNA Deaminase Inhibitors via a fluorescence-based single-stranded DNA deaminase assay. [Related pubchem assays (depositor defined):AID493011, AID493024]; assay type: functional
DNA dC->dU-editing enzyme APOBEC-3A, sequence (P31941 whole entry): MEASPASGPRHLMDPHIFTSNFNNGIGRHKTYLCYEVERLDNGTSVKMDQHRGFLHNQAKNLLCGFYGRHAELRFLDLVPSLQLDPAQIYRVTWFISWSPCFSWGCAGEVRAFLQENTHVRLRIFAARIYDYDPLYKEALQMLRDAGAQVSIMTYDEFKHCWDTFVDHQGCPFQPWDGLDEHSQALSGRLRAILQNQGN

[7] = biological target: G-protein coupled receptor 55 (Homo sapiens, UniProt Q9Y2T6); experiment: inhibition of LPI-stimulated GPR55 beta-arrestin translocation – imaging, U2OS, beta-arrestin-GFP, LPI agonist, primary screen (AID 2013); assay type: functional;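 also: antagonist potency measured as reduced agonist-driven arrestin aggregation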
G-protein coupled receptor 55, sequence (Q9Y2T6 whole entry): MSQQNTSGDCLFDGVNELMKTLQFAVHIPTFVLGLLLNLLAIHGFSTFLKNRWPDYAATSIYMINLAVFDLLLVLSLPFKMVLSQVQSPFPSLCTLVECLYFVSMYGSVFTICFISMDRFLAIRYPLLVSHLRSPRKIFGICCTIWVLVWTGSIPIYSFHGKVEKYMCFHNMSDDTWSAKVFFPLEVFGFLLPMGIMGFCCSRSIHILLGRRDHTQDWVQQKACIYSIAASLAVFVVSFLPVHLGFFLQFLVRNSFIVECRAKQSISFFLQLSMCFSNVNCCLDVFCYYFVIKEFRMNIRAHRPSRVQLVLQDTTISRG

[8] = biological target: Voltage-gated inwardly rectifying potassium channel KCNH2 (Homo sapiens, UniProt Q12809); details: Potency;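 also: confirmatory quantitative high-throughput screen measuring inhibition of hERG channel activity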
Voltage-gated inwardly rectifying potassium channel KCNH2, sequence (Q12809 whole entry, the tested form may be a part): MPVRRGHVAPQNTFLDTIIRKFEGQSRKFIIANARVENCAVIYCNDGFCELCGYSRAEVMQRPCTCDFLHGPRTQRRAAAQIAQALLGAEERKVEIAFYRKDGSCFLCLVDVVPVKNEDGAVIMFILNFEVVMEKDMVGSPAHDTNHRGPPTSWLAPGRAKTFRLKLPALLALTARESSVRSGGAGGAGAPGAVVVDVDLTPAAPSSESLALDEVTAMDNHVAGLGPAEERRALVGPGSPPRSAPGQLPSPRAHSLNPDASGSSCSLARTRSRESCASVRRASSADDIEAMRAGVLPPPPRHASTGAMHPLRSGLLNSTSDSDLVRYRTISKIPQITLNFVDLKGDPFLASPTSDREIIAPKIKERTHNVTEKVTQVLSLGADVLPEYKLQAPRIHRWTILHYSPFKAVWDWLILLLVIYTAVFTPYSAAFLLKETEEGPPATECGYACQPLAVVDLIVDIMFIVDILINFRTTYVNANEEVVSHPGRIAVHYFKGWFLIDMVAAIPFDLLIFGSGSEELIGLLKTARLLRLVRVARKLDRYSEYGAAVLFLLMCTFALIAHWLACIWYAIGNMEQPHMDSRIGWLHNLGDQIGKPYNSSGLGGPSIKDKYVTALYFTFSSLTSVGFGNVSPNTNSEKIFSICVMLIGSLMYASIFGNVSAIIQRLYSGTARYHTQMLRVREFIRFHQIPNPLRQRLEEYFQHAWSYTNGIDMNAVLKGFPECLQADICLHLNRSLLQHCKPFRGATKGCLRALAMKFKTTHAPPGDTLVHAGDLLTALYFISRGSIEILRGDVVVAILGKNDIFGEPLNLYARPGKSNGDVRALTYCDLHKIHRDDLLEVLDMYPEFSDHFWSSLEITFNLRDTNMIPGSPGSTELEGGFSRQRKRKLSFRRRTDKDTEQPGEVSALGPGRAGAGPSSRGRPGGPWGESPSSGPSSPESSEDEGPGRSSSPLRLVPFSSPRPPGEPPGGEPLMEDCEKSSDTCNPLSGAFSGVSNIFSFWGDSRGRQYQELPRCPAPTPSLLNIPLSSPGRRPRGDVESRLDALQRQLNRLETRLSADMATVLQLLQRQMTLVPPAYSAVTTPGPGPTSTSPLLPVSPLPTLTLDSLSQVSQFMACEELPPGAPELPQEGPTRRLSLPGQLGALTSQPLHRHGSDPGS

[9] = biological target: T4, Carboxy-terminal domain RNA polymerase II polypeptide A small phosphatase 1 (Homo sapiens, UniProt Q9GZU7); experiment: CTDSP1 inhibitors, concentration-response, biochemical, absorbance readout, ultra-high-throughput screen actives (AID 540297); assay type: functional
T4 sequence (Q9GZU7 whole entry): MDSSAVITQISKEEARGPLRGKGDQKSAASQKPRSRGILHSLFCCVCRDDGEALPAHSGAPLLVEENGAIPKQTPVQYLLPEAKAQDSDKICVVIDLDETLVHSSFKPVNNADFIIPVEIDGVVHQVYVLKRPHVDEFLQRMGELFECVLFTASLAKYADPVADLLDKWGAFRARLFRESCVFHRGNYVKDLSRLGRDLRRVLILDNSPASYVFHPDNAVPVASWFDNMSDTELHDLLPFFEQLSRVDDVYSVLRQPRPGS

[10] = system: Vero; experiment: cells; assay type: functional; details: Chlorocebus sabaeus
[11] = Luminescence Cell-Based Dose Retest to Confirm Inhibitors of Cancer Stem Cells. [Related pubchem assays (depositor defined):AID2717, AID2721]; assay type: functional; details: Homo sapiens

**Q.** Which IC50 [1] does the source give for `O=C(NNc1nc2c(F)cccc2s1)c1ccccc1` here?
**A.** Its IC50 is > 67.5 µM (inactive).

**Q.** What about the IC50 [2] of the same molecule?
**A.** Its IC50 is > 67.5 µM (inactive).

**Q.** Which EC50 [3] does the source give for `COC(=O)C1=C(C)N(Cc2ccccc2)C(=NCC(C)C)N[C@H]1c1ccccc1` here?
**A.** Its EC50 is 42.7 µM (active).

**Q.** And the EC50 [4]?
**A.** The EC50 was > 300 µM (not active).

**Q.** What about the IC50 [5] of the same molecule?
**A.** The IC50 was 4.17 µM (active).

**Q.** What about the IC50 [6] of the same molecule?
**A.** The IC50 was 4.65 µM (active).

**Q.** What about the IC50 [7] of the same molecule?
**A.** Its IC50 is 1.78 µM (active).

**Q.** Which AC50 [8] does the source give for `CCCCOC(=O)c1ccccc1C(=O)OCc1ccccc1` here?
**A.** Its AC50 is 25.1 µM (inconclusive).

**Q.** With `N#Cc1c(SCC(=O)Nc2cccc(F)c2)sc2c(O)cc(=O)[nH]c12` as the molecule, how does the IC50 [9] read?
**A.** The IC50 was 7.26 µM (active).

**Q.** For `O=C(Nc1ccc(Cl)cc1)c1cc2c(cc1O)[nH]c1ccccc12`, which CC50 [10] is on record?
**A.** Its CC50 is 10.9 µM (active).

**Q.** What about the AC50 [11] of the same molecule?
**A.** Its AC50 is 0.198 µM (active).

**Q.** For `O=C(OCc1cc(=O)n2c(n1)sc1ccccc12)c1ccc(O)cc1`, which IC50 [9] is on record?
**A.** Its IC50 is 5.75 µM (active).

**Q.** With `COc1ccc(C(=O)N[C@H](C(=O)NCCCSc2ccccc2)C(C)C)cc1` as the molecule, how does the IC50 [1] read?
**A.** The IC50 was > 67.5 µM (inactive).

**Q.** What about the IC50 [2] of the same molecule?
**A.** The IC50 was > 67.5 µM (inactive).

— ChEMBL document CHEMBL1201862, “PubChem BioAssay data set” (2004)
